Data taken from US20260224561A1, “INHIBITORS OF CYCLIC ADP RIBOSE HYDROLASE AND METHODS OF USE THEREOF” (Flagship Pioneering Innovations VI, LLC, priority 2022, published 2026).

target: T1, Human recombinant CD38 (Homo sapiens, UniProt P28907); assay: CD38 hydrolase inhibition assay; type: biochemical; conditions: glycohydrolase activity, 0.2 ng/μL CD38, 100 μM ε-NAD substrate, fluorescence excitation 300 nm / emission 410 nm
T1 construct: purchased BPS Bioscience
T1 sequence (P28907 1-300): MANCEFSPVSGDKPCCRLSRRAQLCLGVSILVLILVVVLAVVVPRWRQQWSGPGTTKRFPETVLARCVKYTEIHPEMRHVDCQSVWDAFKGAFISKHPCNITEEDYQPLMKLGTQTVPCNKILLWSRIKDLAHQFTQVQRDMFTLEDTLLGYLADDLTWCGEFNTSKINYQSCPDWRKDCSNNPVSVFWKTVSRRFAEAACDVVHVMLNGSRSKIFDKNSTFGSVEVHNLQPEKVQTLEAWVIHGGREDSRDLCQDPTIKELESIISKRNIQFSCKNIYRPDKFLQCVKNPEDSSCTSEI
Method: Example 22: CD38 Hydrolase Inhibition Assay
The CD38 hydrolase inhibition assay measures the glycohydrolase activity of CD38, using an NAD analog as substrate and measuring formation of a fluorescent ADP ribose analog. A 4× buffer was prepared with 1M sucrose and 160 mM Tris-HCl at pH 7.4, for a final assay concentration of 250 mM sucrose and 40 mM Tris-HCl. The 4× solution was kept at 4° C. and warmed to room temperature before use. Tween20 was added to 1× buffer for a final concentration of 0.05%. Human recombinant CD38 (BPS Bioscience) was diluted to 0.4 ng/μL in 1× buffer and 12.5 μL added to each plate well. Inhibitors were added and DMSO content was normalized to the highest concentration on the plate, with an upper limit of 0.5%. Finally, ε-NAD was diluted to 200 μM in 1× buffer and 12.5 μL added to each plate well, for final well concentrations of 0.2 ng/μL CD38 and 100 μM ε-NAD. Plates were covered and incubated at room temperature for […], and then read on a plate reader using excitation 300 nm and emission 410 nm. […] IC50s for test compounds were determined either using GraphPad Prism software v9.3, or CDD Vault.

| IC50 | Structure (SMILES) |
| --- | --- |
| < 100 nM | COCCOc1cc(C(=O)Nc2cncc(Cl)c2)cc(-n2ccnc2)c1 [Compound 106, N-(5-chloropyridin-3-yl)-3-(imidazol-1-yl)-5-(2-methoxyethoxy) benzamide] |
| < 100 nM | CN(C)CCOc1cc(C(=O)Nc2ccnc(C(F)(F)F)c2)cc(-n2ccnc2)c1 [Compound 107, 3-[2-(dimethylamino)ethoxy]-5-(imidazol-1-yl)-N-[2-(trifluoromethyl)pyridin-4-yl]benzamide] |
| < 100 nM | COCCOc1cc(C(=O)Nc2ccc3cn[nH]c3c2)cc(-n2ccnc2)c1 [Compound 109, 3-(imidazol-1-yl)-N-(1H-indazol-6-yl)-5-(2-methoxyethoxy) benzamide] |
| < 100 nM | COCCOc1cc(C(=O)Nc2ccc(F)c(Cl)c2)cc(-n2ccnc2)c1 [Compound 111, N-(3-chloro-4-fluorophenyl)-3-(imidazol-1-yl)-5-(2-methoxyethoxy)benzamide] |
| < 100 nM | COCCOc1cc(C(=O)Nc2ccc(C(F)(F)F)nc2)cc(-n2ccnc2)c1 [Compound 112, 3-(imidazol-1-yl)-5-(2-methoxyethoxy)-N-[6-(trifluoromethyl)pyridin-3-yl]benzamide] |
| > 1000 nM | COCCOc1cc(-n2ccnc2)cc(C(=O)Nc2ccnc(C(F)(F)F)c2)c1Cl [Compound 113] |
| < 100 nM | COc1cc(C(=O)Nc2ccnc(C(F)(F)F)c2)cc(-n2ccnc2)c1 [Compound 115, 3-(imidazol-1-yl)-5-methoxy-N-[2-(trifluoromethyl)pyridin-4-yl]benzamide] |
| < 100 nM | COCCOc1cc(C(=O)Nc2ccnc(C(F)(F)F)c2)cc(-c2cncs2)c1 [Compound 116, 3-(2-methoxyethoxy)-5-(1,3-thiazol-5-yl)-N-[2-(trifluoromethyl)pyridin-4-yl]benzamide] |
| 100 to 1000 nM | COCCOc1cc(-n2ccnc2)cc(C(=O)Nc2ccnc(C(F)(F)F)c2)c1F [Compound 117, 2-fluoro-5-(imidazol-1-yl)-3-(2-methoxyethoxy)-N-[2-(trifluoromethyl)pyridin-4-yl]benzamide] |
| 100 to 1000 nM | COCCOc1cc(C(=O)Nc2ccnc(C(F)(F)F)c2)cc(-n2cncc2CO)c1 [Compound 118] |
| > 1000 nM | COCCOc1cc(C(=O)Nc2ccnc(C(F)(F)F)c2)cc(-c2cccnc2)c1 [Compound 120, 3-(2-methoxyethoxy)-5-(pyridin-3-yl)-N-[2-(trifluoromethyl)pyridin-4-yl]benzamide] |
| < 100 nM | COCCOc1cc(C(=O)Nc2ccc3[nH]ncc3c2)cc(-n2ccnc2)c1 [Compound 126, 3-(imidazol-1-yl)-N-(1H-indazol-5-yl)-5-(2-methoxyethoxy) benzamide] |
| < 100 nM | COCCOc1cc(C(=O)Nc2ccc3[nH]cnc3c2)cc(-n2ccnc2)c1 [Compound 127, N-(1H-benzo[d]imidazol-6-yl)-3-(1H-imidazol-1-yl)-5-(2-methoxyethoxy)benzamide] |
| < 100 nM | COCCOc1cc(C(=O)Nc2ccc3nccnc3c2)cc(-n2ccnc2)c1 [Compound 128, 3-(imidazol-1-yl)-5-(2-methoxyethoxy)-N-(quinoxalin-6-yl) benzamide] |
